In publication PMC7719768, “Glycogen Phosphorylase: A Drug Target of Amino Alcohols in Echinococcus granulosus, Predicted by a Computer-Aided Method” (Frontiers in Microbiology, 2020) one finds IC50 data, which are given here for 2 compounds.

Experiment [1] addresses T1, Rabbit muscle Gp (recombinant rabbit Gp) (Oryctolagus cuniculus, UniProt P00489).
T1 construct: gene PYGM; called recombinant rabbit Gp in the methods
T1 sequence (P00489 2-843): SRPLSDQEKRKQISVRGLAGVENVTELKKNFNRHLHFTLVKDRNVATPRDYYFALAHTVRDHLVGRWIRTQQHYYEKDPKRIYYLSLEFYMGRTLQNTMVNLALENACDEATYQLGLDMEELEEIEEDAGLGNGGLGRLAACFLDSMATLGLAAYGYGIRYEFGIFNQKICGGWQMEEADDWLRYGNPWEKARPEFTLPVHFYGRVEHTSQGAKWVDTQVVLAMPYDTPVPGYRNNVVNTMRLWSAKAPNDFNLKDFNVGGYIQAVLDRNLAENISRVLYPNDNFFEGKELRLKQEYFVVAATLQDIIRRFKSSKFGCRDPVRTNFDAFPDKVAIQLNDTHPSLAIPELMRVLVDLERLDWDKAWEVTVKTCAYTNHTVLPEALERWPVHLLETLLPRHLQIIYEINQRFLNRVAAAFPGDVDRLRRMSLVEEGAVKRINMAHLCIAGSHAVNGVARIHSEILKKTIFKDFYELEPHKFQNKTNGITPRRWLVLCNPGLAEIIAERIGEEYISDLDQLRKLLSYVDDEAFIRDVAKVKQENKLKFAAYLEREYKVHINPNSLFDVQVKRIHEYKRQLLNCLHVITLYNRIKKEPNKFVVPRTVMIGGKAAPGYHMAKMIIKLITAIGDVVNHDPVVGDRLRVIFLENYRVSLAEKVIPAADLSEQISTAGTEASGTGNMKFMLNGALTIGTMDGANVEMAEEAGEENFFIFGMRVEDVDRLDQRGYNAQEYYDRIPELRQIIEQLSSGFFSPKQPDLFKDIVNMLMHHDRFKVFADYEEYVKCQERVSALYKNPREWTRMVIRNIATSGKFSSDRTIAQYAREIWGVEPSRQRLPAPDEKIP
The experiment in a line: glycogen degradation coupled to phosphoglucomutase and glucose-6-phosphate dehydrogenase, NADPH at […] nm. Type of experiment: biochemical. Conditions: read-out: IC50/LC50 (μM) / Gp / Rabbit muscle.

Experiment [2] addresses T2, E. granulosus PSC Gp (EgGps: EgGp1 and EgGp2).
T2 construct: native enzyme in protoscolex homogenate, not purified; band at 96 kD; MN562583 = EgGp1, MN562584 = EgGp2; EgrG_000501500.1 is printed for Gp without saying which gene
Described as above. The conditions noted are these: protoscolex homogenate; 2 mg/ml glycogen, 1 mM AMP, 5 mM MgCl2, Tris-HCl, 25 °C; 2 min pre-incubation; read-out: IC50/LC50 (μM) / Gp / E. granulosus PSC. Type of experiment: biochemical, Echinococcus granulosus.

With `OC(c1cc(C(F)(F)F)nc2c(C(F)(F)F)cccc12)C1CCCCN1` (stereo not shown) [MEF, mefloquine], the IC50 in experiment [1] was greater than 438 µM; in experiment [2], 128 µM.

As to `C[C@H]1[C@H](C)CC[C@]2(C(=O)O)CC[C@]3(C)C(=CC[C@@H]4[C@@]5(C)CC[C@H](O)C(C)(C)[C@@H]5CC[C@]43C)[C@H]12` [UA, ursolic acid], the IC50 in experiment [1] is 5.47 µM; in experiment [2] it was greater than 438 µM.
